Experimental data reported in patent publication US20150064754A1, “BIOPRODUCTION OF CHEMICALS” (OPX Biotechnologies, Inc., priority 2013, published 2015).

Columns and labels:
E. coli ACCase = E. coli ACCase (Escherichia coli, UniProt P0A9Q5+P0ABD5+P0ABD8+P24182); settings: FIG. 4; for decrease of the activity of the ACCase enzyme relative to control: salts of 3-HP levels near 0.66M; for decrease of the activity of the ACCase enzyme: salt levels near 0.44M
Method: Levels of greater than 0.66M (60 g/L) are expected to be present for commercially viable commercial production of 3-HP.
Each gene was amplified by PCRs with Pfu Ultra II HS using the manufacturer's instructions, and the PCR products were purified using the Zymo PCR Cleanup kit. Concentrations of products were measured using the Nanodrop spectophotometer. The Gibson Assembly kit (NEB) was used to construct plasmids expressing the ACCase subunit genes as directed by the manufacturer. The effect of NH4-3-HP and NH4Cl on H. elongata ACCase was tested and compared to the E. coli ACCase.

H. elongata ACCase = assay: Salt inhibition of ACCase enzyme activity (H. elongata ACCase); format: biochemical, Halomonas elongata; settings: FIG. 4
Method: Concentrations of products were measured using the Nanodrop spectophotometer.

E. coli strains = assay: Growth inhibition of E. coli strains grown in the presence of 3-HP; format: cell-based; settings: levels as low as
3-HP production = assay: 1 L fermentation, 3HP titer with overexpression of rhtA exporter; format: cell-based, E. coli; settings: control plasmid without rhtA, FIG. 7
Method: A known chemical exporter from E. coli that has been previously characterized for homoserine transport, rhtA, was evaluated for increased production of 3-HP. A mutant version of the exporter, rhtA(P2S) (SEQ ID NO. 30 nucleic acid, SEQ ID NO. 31 protein) was synthesized behind the PtpiA promoter and inserted into the pTRC-PyibD-MCR plasmid behind a terminator using the Gibson Assembly kit (NEB) according to manufacturer's instructions. The effects of overexpression of rhtA were evaluated in 1 L fermentation compared to the control plasmid without rhtA. […] Construction of plasmids expressing another putative transporter, ydcO (SEQ ID NO. 32 nucleic acid, SEQ ID NO. 33 protein) is carried out in the same manner.

E. coli ACCase, sequence (P0A9Q5 whole entry): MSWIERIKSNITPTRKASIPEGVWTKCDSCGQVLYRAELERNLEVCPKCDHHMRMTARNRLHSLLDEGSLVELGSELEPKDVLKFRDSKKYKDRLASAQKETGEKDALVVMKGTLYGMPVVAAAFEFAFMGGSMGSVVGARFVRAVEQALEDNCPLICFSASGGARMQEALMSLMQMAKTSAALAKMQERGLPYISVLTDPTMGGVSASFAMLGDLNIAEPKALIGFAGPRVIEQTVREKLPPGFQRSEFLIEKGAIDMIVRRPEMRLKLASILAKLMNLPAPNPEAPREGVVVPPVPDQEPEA
E. coli ACCase, sequence (P0ABD5 whole entry): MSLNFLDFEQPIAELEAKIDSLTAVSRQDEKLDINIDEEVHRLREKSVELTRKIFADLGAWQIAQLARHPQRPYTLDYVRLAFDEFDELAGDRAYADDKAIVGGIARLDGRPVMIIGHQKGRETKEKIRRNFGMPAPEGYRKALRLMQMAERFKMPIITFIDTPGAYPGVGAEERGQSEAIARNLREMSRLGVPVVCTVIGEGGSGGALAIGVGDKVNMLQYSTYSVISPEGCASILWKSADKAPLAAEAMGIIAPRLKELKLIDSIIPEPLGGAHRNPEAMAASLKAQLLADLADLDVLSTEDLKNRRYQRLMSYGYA

Molecule: O=C([O-])CCO.[Na+] [Na-3-HP]
- decrease of the activity of the ACCase enzyme relative to control (E. coli ACCase): approximately 80%

Molecule: N.O=C(O)CCO [NH4-3-HP]
- effect of salt on E. coli ACCase (E. coli ACCase): significantly inhibited
- decrease of the activity of the ACCase enzyme relative to control (E. coli ACCase): approximately 80%
- effect of salt on H. elongata ACCase compared to the E. coli ACCase (H. elongata ACCase): less affected

Molecule: [Cl-].[Na+] [NaCl]
- decrease of the activity of the ACCase enzyme (E. coli ACCase): approximately 80%

Molecule: O=C(O)CCO [3-HP, 3-hydroxypropionic acid]
- 3-HP level at which growth inhibition is demonstrated (E. coli strains): 20 g/L

Molecule: Cl.N [NH4Cl]
- effect of salt on E. coli ACCase (E. coli ACCase): significantly inhibited
- decrease of the activity of the ACCase enzyme (E. coli ACCase): approximately 80%
- effect of salt on H. elongata ACCase compared to the E. coli ACCase (H. elongata ACCase): less affected

B1: rhtA: chemical exporter from E. coli characterized for homoserine transport; mutant version rhtA(P2S) overexpressed (protein)
chain: MSGSLRKMPVWLPIVILLVAMASIQGGASLAKSLFPLVGAPGVTALRLALGTLILIAFFKPWRLRFAKEQRLPLLFYGVSLGGMNYLFYLSIQTVPLGIAVALEFTGPLAVALFSSRRPVDFVWVVLAVLGLWFLLPLGQDVSHVDLTGCALALGAGACWAIYILSGQRAGAEHGPATVAIGSLIAALIFVPIGALQAGEALWHWSVIPLGLAVAILSTALPYSLEMIALTRLPTRTFGTLMSMEPALAAVSGMIFLGETLTPIQLLALGAIIAASMGSTLTVRKESKIKELDIN
- 3HP titer compared to the control production strain (3-HP production): significant improvement
